Results reported in patent US10758534B2 (Vertex Pharmaceuticals Incorporated, priority 2014, dated 2020).

Biological target: T1, F508del (Homo sapiens, UniProt P13569, DEL508-508)
T1 construct: expressed in transfected cells
Experiment: Protocol 1: membrane potential optical assay (FLIPR III, voltage sensing dye), identification of potentiator compounds
Type: cell-based
Settings: Table 3, compounds of Table 1
Procedure, shortened: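 Gating potentiation is read as a membrane-potential fluorescence change (FLIPR III, voltage-sensing dye) after one forskolin addition under a Cl− gradient, with gluconate replacing chloride, pH 7.4. Cells are F508del-expressing NIH3T3 mouse fibroblasts held 24 h at 27 °C and exposed to compound before dye loading.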

T1 sequence (P13569 with tags, fused parts or gaps DEL508-508): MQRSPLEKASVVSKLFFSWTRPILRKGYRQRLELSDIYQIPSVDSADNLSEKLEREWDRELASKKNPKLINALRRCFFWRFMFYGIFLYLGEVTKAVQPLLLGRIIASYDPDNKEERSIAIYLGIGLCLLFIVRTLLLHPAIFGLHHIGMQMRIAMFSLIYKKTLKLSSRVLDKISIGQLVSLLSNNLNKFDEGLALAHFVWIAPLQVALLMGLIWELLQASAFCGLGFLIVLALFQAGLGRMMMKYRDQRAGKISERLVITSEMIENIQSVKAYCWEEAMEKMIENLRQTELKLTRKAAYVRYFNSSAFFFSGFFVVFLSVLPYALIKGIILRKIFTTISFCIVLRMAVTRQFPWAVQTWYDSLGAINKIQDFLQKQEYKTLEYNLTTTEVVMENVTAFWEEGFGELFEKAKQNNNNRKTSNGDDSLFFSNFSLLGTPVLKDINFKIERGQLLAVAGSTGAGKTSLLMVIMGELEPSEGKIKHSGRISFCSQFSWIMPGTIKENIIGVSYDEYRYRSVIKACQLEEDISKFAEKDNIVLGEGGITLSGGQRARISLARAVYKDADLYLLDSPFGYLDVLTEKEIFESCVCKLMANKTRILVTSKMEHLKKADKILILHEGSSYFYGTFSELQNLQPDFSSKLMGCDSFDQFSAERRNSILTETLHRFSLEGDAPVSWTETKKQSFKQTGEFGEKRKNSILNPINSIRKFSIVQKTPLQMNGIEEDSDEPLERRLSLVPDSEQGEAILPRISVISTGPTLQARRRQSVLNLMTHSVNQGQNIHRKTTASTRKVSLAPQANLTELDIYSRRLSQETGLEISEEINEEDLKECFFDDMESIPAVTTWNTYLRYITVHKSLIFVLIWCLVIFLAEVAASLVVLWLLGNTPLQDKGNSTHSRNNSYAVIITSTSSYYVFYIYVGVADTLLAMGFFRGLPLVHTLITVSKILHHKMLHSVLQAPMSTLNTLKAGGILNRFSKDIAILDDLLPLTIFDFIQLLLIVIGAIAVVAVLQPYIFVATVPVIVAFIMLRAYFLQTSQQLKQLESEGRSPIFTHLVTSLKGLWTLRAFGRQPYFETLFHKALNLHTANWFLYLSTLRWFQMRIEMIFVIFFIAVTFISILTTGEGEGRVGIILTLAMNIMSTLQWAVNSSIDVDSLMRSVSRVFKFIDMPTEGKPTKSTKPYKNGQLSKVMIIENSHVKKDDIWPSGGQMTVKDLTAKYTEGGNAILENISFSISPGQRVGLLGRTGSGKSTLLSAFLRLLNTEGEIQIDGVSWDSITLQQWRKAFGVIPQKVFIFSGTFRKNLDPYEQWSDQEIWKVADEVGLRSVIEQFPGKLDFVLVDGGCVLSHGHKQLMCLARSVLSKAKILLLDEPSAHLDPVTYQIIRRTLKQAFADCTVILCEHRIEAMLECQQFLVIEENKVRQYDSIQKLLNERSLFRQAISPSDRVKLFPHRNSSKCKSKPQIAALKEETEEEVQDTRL

Structure (SMILES)	EC30
CC(C)Oc1ccc(-c2ccc(C(=O)NS(=O)(=O)c3cccc(N)n3)c(N3CCCC3(C)C)n2)cn1 [Compound 834, N-[(6-amino-2-pyridyl)sulfonyl]-2-(2,2-dimethylpyrrolidin-1-yl)-6-(6-isopropoxy-3-pyridyl)pyridine-3-carboxamide]	+++ (“+++” means <3 uM)
CC(C)COc1cc(F)cc(-c2ccc(C(=O)NS(=O)(=O)c3cccc(N)n3)c(N3CCC[C@H]3C(C)(C)C)n2)c1 [Compound 1097, N-[(6-amino-2-pyridyl)sulfonyl]-2-[(2S)-2-tert-butylpyrrolidin-1-yl]-6-(3-fluoro-5-isobutoxy-phenyl)pyridine-3-carboxamide]	+++ (“+++” means <3 uM)
CC1CN(c2ncccc2C(=O)NS(=O)(=O)c2cccc(Oc3ccc4ccccc4n3)n2)C(C)(C)C1 (stereo not shown) [Compound 1989, N—[[6-(2-quinolyloxy)-2-pyridyl]sulfonyl]-2-(2,2,4-trimethylpyrrolidin-1-yl)pyridine-3-carboxamide]	+++ (“+++” means <3 uM)
CC(C)Oc1ccc(-c2ccc(C(=O)NS(=O)(=O)c3cccc(N)n3)c(N3CCC(F)(F)CC3)n2)cn1 [Compound 889, N-[(6-amino-2-pyridyl)sulfonyl]-2-(4,4-difluoro-1-piperidyl)-6-(6-isopropoxy-3-pyridyl)pyridine-3-carboxamide]	++ (“++” means between 3 uM and 10 uM)
CC1CN(c2ncccc2C(=O)NS(=O)(=O)c2cccc(OCc3ccccc3F)n2)C(C)(C)C1 (stereo not shown) [Compound 1798, N—[[6-[(2-fluorophenyl)methoxy]-2-pyridyl]sulfonyl]-2-(2,2,4-trimethylpyrrolidin-1-yl)pyridine-3-carboxamide]	+++ (“+++” means <3 uM)
CC(C)(C)c1ccc(C(=O)NS(=O)(=O)c2cccc(N)n2)c(N2CCC(Cc3ccccc3)C2(C)C)n1 (stereo not shown) [Compound 1852, N-[(6-amino-2-pyridyl)sulfonyl]-2-(3-benzyl-2,2-dimethyl-pyrrolidin-1-yl)-6-tert-butyl-pyridine-3-carboxamide]	+++ (“+++” means <3 uM)
CC(C)COc1cc(F)cc(-c2ccc(C(=O)NS(=O)(=O)c3ccccc3)c(N3C[C@@H](C)CC3(C)C)n2)c1 [Compound 1356, N-(benzenesulfonyl)-6-(3-fluoro-5-isobutoxy-phenyl)-2-[(4S)-2,2,4-trimethylpyrrolidin-1-yl]pyridine-3-carboxamide]	+++ (“+++” means <3 uM)
CCN(CC)c1cccc(-c2ccc(C(=O)NS(=O)(=O)c3cccc(N)n3)c(N3CC(C)CC3(C)C)n2)n1 (stereo not shown) [Compound 1345, N-[(6-amino-2-pyridyl)sulfonyl]-6-[6-(diethylamino)-2-pyridyl]-2-(2,2,4-trimethylpyrrolidin-1-yl)pyridine-3-carboxamide]	+++ (“+++” means <3 uM)
CC(C)CC/C=C/c1cc(C(=O)NS(=O)(=O)c2cccc(N)n2)c(N2C[C@@H](C)CC2(C)C)nc1C(C)(C)C [Compound 1682, N-[(6-amino-2-pyridyl)sulfonyl]-6-tert-butyl-5-[(E)-5-methylhex-1-enyl]-2-[(4S)-2,2,4-trimethylpyrrolidin-1-yl]pyridine-3-carboxamide]	+++ (“+++” means <3 uM)
CCN(CC)c1ccc(C)c(-c2ccc(C(=O)NS(=O)(=O)c3cccc(N)n3)c(N3CC(C)CC3(C)C)n2)n1 (stereo not shown) [Compound 1383, N-[(6-amino-2-pyridyl)sulfonyl]-6-[6-(diethylamino)-3-methyl-2-pyridyl]-2-(2,2,4-trimethylpyrrolidin-1-yl)pyridine-3-carboxamide]	+++ (“+++” means <3 uM)
Cc1cc(C)c(Oc2ncc(-c3ccccc3)cc2C(=O)NS(=O)(=O)c2cccc(N)c2)c(C)c1 [Compound 1321, N-(3-aminophenyl)sulfonyl-5-phenyl-2-(2,4,6-trimethylphenoxy)pyridine-3-carboxamide]	++ (“++” means between 3 uM and 10 uM)
CC[C@@H]1CN(c2nc(-c3cc(F)cc(OCC(C)C)c3)ccc2C(=O)NS(=O)(=O)c2cccc(N)n2)C(C)(C)C1 [Compound 1612, N-[(6-amino-2-pyridyl)sulfonyl]-2-[(4S)-4-ethyl-2,2-dimethyl-pyrrolidin-1-yl]-6-(3-fluoro-5-isobutoxy-phenyl)pyridine-3-carboxamide]	+++ (“+++” means <3 uM)
CC(C)COc1ccc(-c2ccc(C(=O)NS(=O)(=O)c3ccn[nH]3)c(N3[C@H](C)CC[C@@H]3C)n2)cc1 [Compound 1335, 2-[(2S,5R)-2,5-dimethylpyrrolidin-1-yl]-6-(4-isobutoxyphenyl)-N-(1H-pyrazol-5-ylsulfonyl)pyridine-3-carboxamide]	+++ (“+++” means <3 uM)
CC(=O)C1CCC(c2ccc(C(=O)NS(=O)(=O)c3cccc(N)n3)c(Oc3c(C)cc(C)cc3C)n2)CC1 (stereo not shown) [Compound 1631, 6-(4-acetylcyclohexyl)-N-[(6-amino-2-pyridyl)sulfonyl]-2-(2,4,6-trimethylphenoxy)pyridine-3-carboxamide]	++ (“++” means between 3 uM and 10 uM)
C[C@@H]1CN(c2nc(-c3cc(O)cc(F)c3)ccc2C(=O)NS(=O)(=O)c2cccc(N)n2)C(C)(C)C1 [Compound 1636, N-[(6-amino-2-pyridyl)sulfonyl]-6-(3-fluoro-5-hydroxy-phenyl)-2-[(4S)-2,2,4-trimethylpyrrolidin-1-yl]pyridine-3-carboxamide]	++ (“++” means between 3 uM and 10 uM)
COc1ccc(-c2ccc(C(=O)NS(=O)(=O)c3cccc(N)n3)c(Oc3c(C)cc(C)cc3C)n2)cc1F [Compound 1140, N-[(6-amino-2-pyridyl)sulfonyl]-6-(3-fluoro-4-methoxy-phenyl)-2-(2,4,6-trimethylphenoxy)pyridine-3-carboxamide]	+++ (“+++” means <3 uM)
Cc1ccc(-c2ccc(C(=O)NS(=O)(=O)c3nccnc3N)c(NCC3(C)CCOCC3)n2)cc1 [Compound 1066, N-(3-aminopyrazin-2-yl)sulfonyl-2-[(4-methyltetrahydropyran-4-yl)methylamino]-6-(p-tolyl)pyridine-3-carboxamide]	++ (“++” means between 3 uM and 10 uM)
CC(C)COc1cc(F)cc(-c2ccc(C(=O)NS(=O)(=O)c3cccc(N)n3)c(O[C@@H]3C[C@H]4CC[C@@H]3C4)n2)c1 [Compound 1216, N-[(6-amino-2-pyridyl)sulfonyl]-6-(3-fluoro-5-isobutoxy-phenyl)-2-[(1R,2R,4S)-norbornan-2-yl]oxy-pyridine-3-carboxamide]	+++ (“+++” means <3 uM)
Cc1cccc(C)c1Cn1nc(C(C)(C)C)cc1C(=O)NS(=O)(=O)c1ccco1 [Compound 1468, 5-tert-butyl-2-[(2,6-dimethylphenyl)methyl]-N-(2-furylsulfonyl)pyrazole-3-carboxamide]	+++ (“+++” means <3 uM)
CCOc1ccc(-c2ccc(C(=O)NS(=O)(=O)c3cc[nH]n3)c(Oc3ccc(C)cc3C)n2)cc1 [Compound 813, 2-(2,4-dimethylphenoxy)-6-(4-ethoxyphenyl)-N-(1H-pyrazol-3-ylsulfonyl)pyridine-3-carboxamide]	+++ (“+++” means <3 uM)
CC1CN(c2ncccc2C(=O)NS(=O)(=O)c2cccc(OCC3CCCCC3)n2)C(C)(C)C1 (stereo not shown) [Compound 1767, N—[[6-(cyclohexylmethoxy)-2-pyridyl]sulfonyl]-2-(2,2,4-trimethylpyrrolidin-1-yl)pyridine-3-carboxamide]	+++ (“+++” means <3 uM)
C[C@@H]1CN(c2nc(C3=CCN(C(=O)OC(C)(C)C)CC3)ccc2C(=O)NS(=O)(=O)c2cccc(N)n2)C(C)(C)C1 [Compound 1624, tert-butyl 4-[5-[(6-amino-2-pyridyl)sulfonylcarbamoyl]-6-[(4S)-2,2,4-trimethylpyrrolidin-1-yl]-2-pyridyl]-3,6-dihydro-2H-pyridine-1-carboxylate]	+++ (“+++” means <3 uM)
COc1ncc(-c2ccc(C(=O)NS(=O)(=O)c3cccc(N)n3)c(Oc3c(C)cc(C)cc3C)n2)cc1Cl [Compound 1332, N-[(6-amino-2-pyridyl)sulfonyl]-6-(5-chloro-6-methoxy-3-pyridyl)-2-(2,4,6-trimethylphenoxy)pyridine-3-carboxamide]	+++ (“+++” means <3 uM)
Cc1ccc(-c2nc3c(cc2C(=O)NS(=O)(=O)c2ccn[nH]2)CCCC3(C)C)cc1 [Compound 1292, 8,8-dimethyl-2-(p-tolyl)-N-(1H-pyrazol-5-ylsulfonyl)-6,7-dihydro-5H-quinoline-3-carboxamide]	+ (“+” means greater than 10 uM)
CC(C)COc1cc(F)cc(-c2ccc(C(=O)NS(=O)(=O)c3cccc(N)n3)c(N3CCC(C)(C)[C@H]3C)n2)c1 [Compound 1065, N-[(6-amino-2-pyridyl)sulfonyl]-6-(3-fluoro-5-isobutoxy-phenyl)-2-[(2R)-2,3,3-trimethylpyrrolidin-1-yl]pyridine-3-carboxamide]	+++ (“+++” means <3 uM)
CCOc1cccc2c1CN(Cc1c(C)cc(C)cc1C)C2(C)C(=O)NS(=O)(=O)c1ncccc1O (stereo not shown) [Compound 1642, 4-ethoxy-N-[(3-hydroxy-2-pyridyl)sulfonyl]-1-methyl-2-[(2,4,6-trimethylphenyl)methyl]isoindoline-1-carboxamide]	+++ (“+++” means <3 uM)
C[C@@H]1CN(c2nc(C3=CCCCO3)ccc2C(=O)NS(=O)(=O)c2cccc(N)n2)C(C)(C)C1 [Compound 1438, N-[(6-amino-2-pyridyl)sulfonyl]-6-(3,4-dihydro-2H-pyran-6-yl)-2-[(4S)-2,2,4-trimethylpyrrolidin-1-yl]pyridine-3-carboxamide]	+++ (“+++” means <3 uM)
Cc1ccc(-c2ccc(C(=O)NS(=O)(=O)c3cccc(N)n3)c(N3CC(C)CC3(C)C)n2)nc1OCC(C)(C)C (stereo not shown) [Compound 1610, N-[(6-amino-2-pyridyl)sulfonyl]-6-[6-(2,2-dimethylpropoxy)-5-methyl-2-pyridyl]-2-(2,2,4-trimethylpyrrolidin-1-yl)pyridine-3-carboxamide]	+++ (“+++” means <3 uM)
